Values quoted from earlier work, collected in publication PMC8481536, “Wells–Dawson phosphotungstates as mushroom tyrosinase inhibitors: a speciation study” (Scientific Reports, 2021).

Target: T1, AbPPO4 (Agaricus bisporus, UniProt C7FF05, S179N/V121A)
T1 construct: GST (glutathione-S-transferase) (N, cleaved yes); made in house; host or cells: E. coli BL21(DE3)
Conditions: cited from earlier work

T1 sequence (C7FF05 1-383 V121A/S179N): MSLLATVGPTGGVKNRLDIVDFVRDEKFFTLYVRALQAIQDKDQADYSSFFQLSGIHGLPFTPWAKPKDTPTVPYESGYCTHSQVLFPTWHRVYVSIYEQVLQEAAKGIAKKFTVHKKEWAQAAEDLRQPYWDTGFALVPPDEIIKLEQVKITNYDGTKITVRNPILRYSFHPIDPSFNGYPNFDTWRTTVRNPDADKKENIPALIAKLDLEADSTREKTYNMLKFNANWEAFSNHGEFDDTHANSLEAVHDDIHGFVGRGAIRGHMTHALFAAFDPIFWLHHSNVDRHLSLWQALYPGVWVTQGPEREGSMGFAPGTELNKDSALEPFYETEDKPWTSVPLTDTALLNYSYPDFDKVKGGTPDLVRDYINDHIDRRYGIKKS

## N[C@@H](Cc1ccc(O)c(O)c1)C(=O)O [L-DOPA, L-3,4−dihydroxyphenylalanine]
  Km: 26.1 mM
